Columns and labels:
[1] = IAM chromatography on new IAM.PC.DD2 columns (gradient HPLC, CHI (IAM)); assay type: physicochemical; set-up: key to CHI (IAM) “new” / P20511-014-3 CHI (IAM): CHI (IAM) from retention times calibrated to predefined CHI standards; details: for log K (IAM): constant values of the calibration set, CHI IAM converted to octanol/water lipophilicity scale by equation 7; for P20511-014-3 CHI (IAM): new IAM.PC.DD2 column batch P20511-014-3, pH 7.4; for R20511-014-3 CHI (IAM): new IAM.PC.DD2 column batch R20511-014-3, pH 7.4
Method: The IAM binding was measured using IAM.PC.DD2 HPLC columns (Regis Technologies, Inc., IL, USA) with dimensions of 100 x 4.6 mm, particle size 10 μm with 300 Å pore size.
Two batches of IAM.PC.DD2 columns were studied (R20511-014-3 and P20511-014-3) that had been prepared using the new batches of silica support.
The retention times were standardized using the IAM calibration mixture, containing octanophenone, heptanophenone, hexanophenone, valerophenone, butyrophenone, propiophenone, acetophenone, acetanilide and paracetamol. The retention times of the compounds were plotted against the isocratically determined and predefined CHI (IAM) values listed in Table 1. The slope and intercept of the obtained straight line was used to calculate the CHI IAM values of new compounds.

[2] = set-up: method as in earlier work; details: constant, isocratically determined and predefined values of the calibration set; cited from earlier work
[3] = human
[4] = reference CHI (IAM), old columns; cited from earlier work
[5] = molecular target: T1, human serum albumin (HSA) (Homo sapiens, UniProt P02768); details: cited from earlier work
T1 sequence (P02768 25-609): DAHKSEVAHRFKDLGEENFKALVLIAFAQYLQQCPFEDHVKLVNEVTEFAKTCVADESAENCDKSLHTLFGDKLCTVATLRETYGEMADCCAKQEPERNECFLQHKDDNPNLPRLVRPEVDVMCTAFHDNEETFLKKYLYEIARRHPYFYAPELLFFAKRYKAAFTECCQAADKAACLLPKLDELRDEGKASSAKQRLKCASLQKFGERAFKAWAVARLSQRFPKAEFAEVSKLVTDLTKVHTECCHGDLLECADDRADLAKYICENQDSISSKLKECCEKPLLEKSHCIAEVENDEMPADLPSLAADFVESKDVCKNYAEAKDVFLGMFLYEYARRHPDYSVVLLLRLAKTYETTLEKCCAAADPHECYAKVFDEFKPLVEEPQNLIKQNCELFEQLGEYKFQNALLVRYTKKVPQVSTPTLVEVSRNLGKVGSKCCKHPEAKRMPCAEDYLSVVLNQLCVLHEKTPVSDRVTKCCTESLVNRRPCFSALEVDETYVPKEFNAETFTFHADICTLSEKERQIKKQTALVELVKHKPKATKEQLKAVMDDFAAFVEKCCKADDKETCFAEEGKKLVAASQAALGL

[6] = molecular target: T1, human serum albumin (HSA); test: Protein binding on chemically bonded HSA column (Chiralpak-HSA); details: remeasured in this study, pH 7.4
Method: Mobile phase A was 50 mM ammonium acetate adjusted to pH 7.4 and mobile phase B was 2-propanol. The flow rate was 1.5 mL/min and the run time was 6 min. The 2-propanol gradient was applied from 0 to 35% from 0 to 3.00 min and kept at 35% until 4.00 min.

Compound | log K (IAM) [1] | CHI (IAM) [2] | P20511-014-3 CHI (IAM) [1] | R20511-014-3 CHI (IAM) [1] | reference log Vdss [3] | CHI (IAM) from ref [13] [4] | log K HSA from ref [13] [5] | log K HSA [6]
CC(=O)c1ccccc1 [Acetophenone] | 1.67 | 17.2 |  |  |  |  |  | 
CCCCC(=O)c1ccccc1 [Valerophenone] | 3.16 | 37.3 |  |  |  |  |  | 
CCCCCCCC(=O)c1ccccc1 [Octanophenone] | 4.97 | 49.4 |  |  |  |  |  | 
CCC(=O)c1ccccc1 [Propiophenone] | 2.15 | 25.9 |  |  |  |  |  | 
CC(=O)Nc1ccc(O)cc1 [Paracetamol] | 1.20 | 2.90 |  |  |  |  |  | 
CCCC(=O)c1ccccc1 [Butyrophenone] | 2.62 | 32.0 |  |  |  |  |  | 
CC(=O)Nc1ccccc1 [Acetanilide] | 1.45 | 11.5 | 11.50 | 11.55 | -0.13 | 10.70 | 0.62 | 0.43
CCCCCCC(=O)c1ccccc1 [Heptanophenone] | 4.30 | 45.7 |  |  |  |  |  | 
NC(N)=Nc1nc(CSCCC(N)=NS(N)(=O)=O)cs1 [Famotidine] |  |  | 16.08 | 16.82 | -0.06 | 15.70 | 1.39 | 3.43
CCCCCC(=O)c1ccccc1 [Hexanophenone] | 3.71 | 41.8 |  |  |  |  |  | 

— publication PMC8915595, “Revisiting the application of Immobilized Artificial Membrane (IAM) chromatography to estimate in vivo distribution properties of drug discovery compounds based on the model of marketed drugs” (ADMET & DMPK, 2020)
